Laboratory results: patent US20210369853A1, “TARGETED PROTEASE DEGRADATION PLATFORM” (EUBULUS BIOTHERAPEUTICS INC., priority 2018, published 2021)
Where two headings read alike, the source gives them in different places.

Experiments:
Assay type in all cases: cell-based
[1] = test system: Human cervical adenocarcinoma cells Hela; assay: Cell proliferation experiment (Alarm blue, 72 h, EC50); conditions: Homo sapiens
Method in brief: (§1)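 Log-phase cells, passaged at least 2 generations, were seeded in 96-well plates and exposed to test compound in complete medium as a 5-fold dilution series in duplicate for 72 h. Fluorescence was read by Alamar blue and EC50 fitted to a four-parameter curve (Min, Max, Slope).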

[2] = test system: Human Monocytic Leukemia MV4-11; assay: as above
Method in brief: as §1

[3] = target: T1, PLK1 (Homo sapiens, UniProt P53350); assay: Western blot, protein degradation (DC50)
T1 construct: endogenous in cells
T1 sequence (P53350 whole entry): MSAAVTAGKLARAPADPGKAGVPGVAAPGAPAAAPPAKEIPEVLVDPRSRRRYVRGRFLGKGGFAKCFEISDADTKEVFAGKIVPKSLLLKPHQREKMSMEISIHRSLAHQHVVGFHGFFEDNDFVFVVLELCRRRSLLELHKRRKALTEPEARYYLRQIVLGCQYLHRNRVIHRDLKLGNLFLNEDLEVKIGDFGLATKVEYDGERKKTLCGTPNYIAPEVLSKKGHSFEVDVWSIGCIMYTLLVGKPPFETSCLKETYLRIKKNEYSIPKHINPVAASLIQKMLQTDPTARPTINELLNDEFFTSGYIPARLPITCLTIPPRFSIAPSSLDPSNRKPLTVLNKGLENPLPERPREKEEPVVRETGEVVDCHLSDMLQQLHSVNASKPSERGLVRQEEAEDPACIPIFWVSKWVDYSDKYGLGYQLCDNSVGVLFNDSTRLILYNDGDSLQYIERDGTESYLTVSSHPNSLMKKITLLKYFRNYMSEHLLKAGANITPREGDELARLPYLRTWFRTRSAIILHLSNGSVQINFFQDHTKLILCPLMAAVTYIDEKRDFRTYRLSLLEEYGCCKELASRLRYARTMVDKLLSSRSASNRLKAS
Experimental: (§2) Cells were treated with the compound for a period of time, after that the cells were collected by centrifugation. After washing with PBS, the cells were lysed by adding RIPA buffer; the cell lysate were added to the loading buffer and then appropriate volume were taken and slowly added to the corresponding wells of the gel plate, and run the SDS-PAGE gel (4%-12%). After running the gel, transferred to the PVDF membrane and sealed with 5% skimmed milk powder at room temperature for 1 hour. The membrane was placed in the primary antibody diluted with 5% skimmed milk powder and shaked slowly overnight at 4° C. After incubation with primary antibody, the membrane was washed 3 times using a TBST shaker; added secondary antibody diluted with 5% skimmed milk powder corresponding to the primary antibody, and shaked slowly at room temperature for 1 hour. After incubation with secondary antibody, the membrane was washed 3 times using the TBST shaker again. The PVDF membrane was flatted in the cassette, the strip was evenly infiltrated with ECL developer solution, and placed in ChemDoc XRS+ gel imager for taking pictures. The intensity of protein bands was analyzed quantitatively using ImageJ software.

[4] = target: T2, BRD4 (Homo sapiens, UniProt O60885); assay: Western blot, protein degradation (DC50)
T2 construct: endogenous in cells
Experimental: as §2

[5] = test system: Human Small Cell Lung Cancer NCI-H82; assay: Cell proliferation experiment (Alarm blue, 72 h, EC50); conditions: NCIH82 cells
Method in brief: as §1

[6] = test system: Human Colon Cancer HCT-116; assay: as above; conditions: HCT116 cells
Method in brief: as §1

[7] = test system: Human Glioma Cells U-87 MG; assay: as above; conditions: Homo sapiens; U-87MG cells
Method in brief: as §1

[8] = test system: Human Breast Cancer MDA-MB-231; assay: as above; conditions: Homo sapiens; MDA-MB-231 cells
Method in brief: as §1

[9] = test system: Human Monocytic Leukemia THP-1; assay: as above; conditions: THP-1 cells
Method in brief: as §1

[10] = test system: Human Acute Myelomonocytic Leukemia HL-60; assay: as above; conditions: HL-60 cells
Method in brief: as §1

[11] = test system: Human Colon Cancer HT-29; assay: as above; conditions: Homo sapiens; HT-29 cells
Method in brief: as §1

[12] = Homo sapiens, MV4-11, MV4;11 cells
[13] = 6 h, western blot, read-out: PLK1 DC50 (6 h)
[14] = 6 h, western blot, read-out: BRD4 DC50 (6 h)
[15] = 24 h, read-out: PLK1 DC50 (24 h)
[16] = 24 h, read-out: BRD4 DC50 (24 h)

Row | SMILES | EC50 [1] [nM] | EC50 [2, 12] [nM] | DC50 [3, 13] [nM] | DC50 [4, 14] [nM] | EC50 ([5]; Homo sapiens, NCI-H82) [nM] | EC50 ([6]; Homo sapiens, HCT-116) [nM] | further results
1 | CC[C@@H]1c2nncn2-c2cnc(Nc3ccc(C(=O)NCCOCCOCCOCCOCC(=O)N[C@H](C(=O)N4C[C@H](O)C[C@H]4C(=O)NCc4ccc(-c5scnc5C)cc4)C(C)(C)C)cc3OC)nc2N1C1CCCC1 [UB-180523] | > 1000 | 10 to 100 | > 1000 | > 1000 |  |  | 
2 | CC[C@@H]1c2c(C#N)ncn2-c2cnc(Nc3ccc(C(=O)NCCOCCOCCOCCOCC(=O)N[C@H](C(=O)N4C[C@H](O)C[C@H]4C(=O)NCc4ccc(-c5scnc5C)cc4)C(C)(C)C)cc3OC)nc2N1C1CCCC1 [UB-180525] | > 1000 | 10 to 100 | > 1000 | > 1000 |  |  | 
3 | CC[C@@H]1c2c(C#N)ncn2-c2cnc(Nc3ccc(C(=O)NCCOCCOCCOCCC(=O)N[C@H](C(=O)N4C[C@H](O)C[C@H]4C(=O)NCc4ccc(-c5scnc5C)cc4)C(C)(C)C)cc3OC)nc2N1C1CCCC1 [UB-180529] | > 1000 | 10 to 100 | > 1000 | > 1000 |  |  | 
4 | CC[C@@H]1C(=O)N(C)c2cnc(Nc3ccc(C(=O)NCCOCCOCCOCC(=O)Nc4cccc5c4CN(C4CCC(=O)NC4=O)C5=O)cc3OC)nc2N1Cc1ccc(Br)cc1 (stereo partly drawn) [UB-180566] |  | < 10 | < 10 | < 10 | > 1000 | 100 to 1000 | 
5 | CC[C@@H]1C(=O)N(C)c2cnc(Nc3ccc(C(=O)NCCOCCNCCCC(=O)Nc4cccc5c4CN(C4CCC(=O)NC4=O)C5=O)cc3OC)nc2N1Cc1ccc(Br)cc1 (stereo partly drawn) [UB-180625] |  | 10 to 100 |  |  | > 1000 | > 1000 | DC50 [3, 15]: < 10 nM; DC50 [4, 16]: < 10 nM
6 | CC[C@@H]1C(=O)N(C)c2cnc(Nc3ccc(C(=O)NCCOCCNCCCC(=O)Nc4cccc5c4CN(C4CCC(=O)NC4=O)C5=O)cc3OC)nc2N1Cc1ccc(Br)cc1 (stereo partly drawn) [UB-180626] |  |  |  |  |  |  | EC50 ([2]; MV4;11 cells): 10 to 100 nM; EC50 [5]: > 1000 nM; EC50 [6]: > 1000 nM
7 | CC[C@@H]1C(=O)N(C)c2cnc(Nc3ccc(C(=O)NCCCNCCCCCCC(=O)Nc4cccc5c4CN(C4CCC(=O)NC4=O)C5=O)cc3OC)nc2N1Cc1ccc(Br)cc1 (stereo partly drawn) [UB-180627] |  | 10 to 100 |  |  | > 1000 | > 1000 | DC50 [3, 15]: 100 to 1000 nM; DC50 [4, 16]: < 10 nM
8 | CC[C@@H]1C(=O)N(C)c2cnc(Nc3ccc(C(=O)NCCCNCCCCCCCC(=O)Nc4cccc5c4CN(C4CCC(=O)NC4=O)C5=O)cc3OC)nc2N1Cc1ccc(Br)cc1 (stereo partly drawn) [UB-180628] |  | 10 to 100 |  |  | > 1000 | > 1000 | 
9 | CC[C@@H]1C(=O)N(C)c2cnc(Nc3ccc(C(=O)NCCOCCOCCOCCNCCC(=O)Nc4cccc5c4CN(C4CCC(=O)NC4=O)C5=O)cc3OC)nc2N1Cc1ccc(Br)cc1 (stereo partly drawn) [UB-180634] | 100 to 1000 | < 10 |  |  | > 1000 | > 1000 | EC50 [7]: 100 to 1000 nM; EC50 [8]: 100 to 1000 nM; EC50 [9]: 100 to 1000 nM; EC50 [10]: 100 to 1000 nM; EC50 [11]: 100 to 1000 nM
10 | CC[C@@H]1C(=O)N(C)c2cnc(Nc3ccc(C(=O)NCCCNCCCC(=O)Nc4cccc5c4CN(C4CCC(=O)NC4=O)C5=O)cc3OC)nc2N1Cc1ccc(Br)cc1 (stereo partly drawn) [UB-180637] |  | 10 to 100 |  |  | > 1000 | > 1000 | 
11 | CC[C@@H]1C(=O)N(C)c2cnc(Nc3ccc(C(=O)NCCCNCCCCC(=O)Nc4cccc5c4CN(C4CCC(=O)NC4=O)C5=O)cc3OC)nc2N1Cc1ccc(Br)cc1 (stereo partly drawn) [UB-180638] |  | 10 to 100 |  |  | > 1000 | > 1000 | 
12 | CC[C@@H]1C(=O)N(C)c2cnc(Nc3ccc(C(=O)NCCCNCCCCCC(=O)Nc4cccc5c4CN(C4CCC(=O)NC4=O)C5=O)cc3OC)nc2N1Cc1ccc(Br)cc1 (stereo partly drawn) [UB-180639] |  | 10 to 100 |  |  | > 1000 | > 1000 | 
